Values of other authors as cited in patent US20060074243A1, “Hydroxamic acid and amide compounds and their use as protease inhibitors” (Pharmacia Corporation, priority 2002, published 2006).

Tested on: solid tumor cancers (colorectal, pancreatic, ovarian, and prostate)
Details: cited from earlier work

## CNC(=O)[C@@H](NC(=O)[C@H](CC(C)C)[C@H](O)C(=O)NO)C(C)(C)C [Marimastat]
Clinical trials
  most common drug-related toxicity: musculoskeletal pain and stiffness
Patients with advanced, rapidly progressive, treatment-refractory solid tumor cancers
  rise of cancer-specific antigens used as surrogate markers for biological activity: dose-related reduction
